Values of other authors as cited in patent publication US8642577B2 (priority 2005, dated 2014).

Test system: poxvirus
Conditions: in vivo, po

| Compound | activity against poxvirus when given orally |
| --- | --- |
| Nc1ccn(C[C@@H](CO)OCP(=O)(O)O)c(=O)n1 [CDV, cidofovir] | inactive when given orally |
| Nc1ccn(C[C@H]2COP(=O)(O)CO2)c(=O)n1 [cCDV, cyclic cidofovir] | inactive when given orally |
